# Test results from US10100097B2, “GIP-GLP-1 dual agonist compounds and methods” (Zealand Pharma A/S, priority 2012, dated 2018).
# Numbered stars: 1 amine (or outer) side, 2 acyl side, 3 side chain; on linkers, the order of the positions; unused ones are H or OH. Square brackets hold non-standard residues; d marks the D form. Side chains are listed from the residue outwards. Peptide text beside a SMILES is read from it. * marks the point of attachment. γGlu = O=C(O)[C@H](CCC(=O)[*:2])N[*:1]; 1Nal = N[C@@H](Cc1cccc2ccccc12)C(=O)O; Palmitoyl = CCCCCCCCCCCCCCCC(=O)*; Aib = CC(C)(N)C(=O)O
# Target: T1, human GLP-1 R (Homo sapiens, UniProt P43220)
# T1 construct: expressed in transfected cells
# Assay: Human GLP-1 receptor (GLP-1 R) activity assay, cAMP induction (AlphaScreen cAMP kit)
# Assay type: cell-based
# Conditions: HEK293 cells expressing the human GLP-1 R, 15 min at 37° C., average values of multiple determinations, read-out: GLP1 R (EC50 in nM)
# Method: Human GIP Receptor (GIP R) and GLP-1 Receptor (GLP-1 R) Activity Assay
# In vitro effects of peptide conjugates of the invention were assessed by measuring the induction of cAMP following stimulation of the respective receptor by GIP, GLP1 or analogues of these, as outlined in the invention, using the AlphaSceen® cAMP kit from Perkin-Elmer according to instructions. Briefly. HEK293 cells expressing the human GIP R or GLP-1 R (stable cell lines generated through transfection of the cDNA for human GIP R or GLP-1 and selection of stable clones) were seeded at 30,000 cells/well in 96-well microtiter plates coated with 0.01% poly-L-lysine, and grown for 1 day in culture in 200 μl growth medium (DMEM, 10% FCS, Penicillin (100 IU/ml), Streptomycin (100 μg/ml)). On the day of analysis, growth medium was removed and the cells were washed once with […] Tyrode's buffer (Tyrode's Salts (9.6 g/1), 10 mM HEPES, pH 7.4). […] The Assay buffer was removed and cells are lysed in 80 μl Lysis buffer (0.1% w/v BSA, 5 mM HEPES, 0.3% v/v Tween-20) per well. From each well 10 μl lysed cells was transferred to a 384-well plate and mixed with 15 μl bead-mix (1 Unit/15 μl anti-cAMP Acceptor Beads, 1 Unit/15 μl Donor Beads, and 1 Unit/15 μl Biotinylated cAMP in Assay Buffer). The plates were mixed and incubated in the dark for an hour at room temperature before measuring using an Envision™ plate reader (Perkin-Elmer).
# T1 sequence (P43220 24-463): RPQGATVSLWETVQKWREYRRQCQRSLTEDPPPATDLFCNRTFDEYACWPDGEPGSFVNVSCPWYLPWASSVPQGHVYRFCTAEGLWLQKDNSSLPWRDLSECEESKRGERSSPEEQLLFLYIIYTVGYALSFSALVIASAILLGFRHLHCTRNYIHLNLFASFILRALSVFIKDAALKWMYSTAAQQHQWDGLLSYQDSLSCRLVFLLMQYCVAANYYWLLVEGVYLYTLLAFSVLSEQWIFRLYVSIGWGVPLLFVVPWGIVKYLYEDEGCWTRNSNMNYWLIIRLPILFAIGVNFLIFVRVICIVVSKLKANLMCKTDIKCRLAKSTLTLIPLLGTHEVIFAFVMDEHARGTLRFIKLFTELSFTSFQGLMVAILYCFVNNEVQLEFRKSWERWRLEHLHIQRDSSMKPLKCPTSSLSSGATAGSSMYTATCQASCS
row,Compound,EC50
1,CC[C@H](C)[C@H](NC(=O)[C@H](CO)NC(=O)[C@H](Cc1ccc(O)cc1)NC(=O)[C@H](CC(=O)O)NC(=O)[C@H](CO)NC(=O)[C@@H](NC(=O)[C@H](Cc1ccccc1)NC(=O)[C@@H](NC(=O)CNC(=O)[C@H](CCC(=O)O)NC(=O)C(C)(C)NC(=O)[C@@H](N)Cc1ccc(O)cc1)[C@@H](C)O)[C@@H](C)O)C(=O)N[C@@H](Cc1ccc(O)cc1)C(=O)N[C@@H](CC(C)C)C(=O)N[C@@H](CC(=O)O)C(=O)N[C@@H](CCCCN)C(=O)N[C@@H](CCCCN)C(=O)N[C@@H](C)C(=O)N[C@@H](CCC(N)=O)C(=O)N[C@@H](CCCNC(=N)N)C(=O)N[C@@H](C)C(=O)N[C@@H](Cc1ccccc1)C(=O)N[C@H](C(=O)N[C@@H](CC(N)=O)C(=O)N[C@@H](Cc1c[nH]c2ccccc12)C(=O)N[C@@H](CC(C)C)C(=O)N[C@@H](CCCCN)C(=O)N[C@@H](C)C(=O)NC(C)(C)C(=O)N[C@@H](CCCCN)C(N)=O)C(C)C [Compound 23] (H-Y[Aib]EGTFTSDYSIYLDKKAQRAFVNWLKA[Aib]K-NH2),0.012 nM
2,CC[C@H](C)[C@H](NC(=O)[C@H](CO)NC(=O)[C@H](Cc1ccc(O)cc1)NC(=O)[C@H](CC(=O)O)NC(=O)[C@H](CO)NC(=O)[C@@H](NC(=O)[C@H](Cc1ccccc1)NC(=O)[C@@H](NC(=O)CNC(=O)[C@H](CCC(=O)O)NC(=O)C(C)(C)NC(=O)[C@@H](N)Cc1ccc(O)cc1)[C@@H](C)O)[C@@H](C)O)C(=O)N[C@@H](Cc1ccc(O)cc1)C(=O)N[C@@H](CC(C)C)C(=O)N[C@@H](CC(=O)O)C(=O)N[C@@H](CCCCN)C(=O)N[C@@H](CCCCN)C(=O)N[C@@H](C)C(=O)N[C@@H](CCC(N)=O)C(=O)N[C@@H](CCCNC(=N)N)C(=O)N[C@@H](C)C(=O)N[C@@H](Cc1ccccc1)C(=O)N[C@H](C(=O)N[C@@H](CC(N)=O)C(=O)N[C@@H](Cc1c[nH]c2ccccc12)C(=O)N[C@@H](CC(C)C)C(=O)N[C@@H](CC(C)C)C(=O)N[C@@H](C)C(=O)NC(C)(C)C(=O)N[C@@H](CCCCN)C(=O)N[C@@H](Cc1ccc(O)cc1)C(=O)NCC(=O)N[C@@H](Cc1cccc2ccccc12)C(=O)N[C@@H](CC(C)C)C(=O)N[C@@H](CC(=O)O)C(=O)N[C@@H](Cc1ccccc1)C(N)=O)C(C)C [Compound 25] (H-Y[Aib]EGTFTSDYSIYLDKKAQRAFVNWLLA[Aib]KYG[1Nal]LDF-NH2),0.041 nM
3,CCCCCCCCCCCCCCCC(=O)N[C@@H](CCC(=O)NCCCC[C@H](NC(=O)[C@H](CCC(=O)O)NC(=O)[C@H](CC(=O)O)NC(=O)[C@H](CC(C)C)NC(=O)[C@H](Cc1ccc(O)cc1)NC(=O)[C@@H](NC(=O)[C@H](CO)NC(=O)[C@H](Cc1ccc(O)cc1)NC(=O)[C@H](CC(=O)O)NC(=O)[C@H](CO)NC(=O)[C@@H](NC(=O)[C@H](Cc1ccccc1)NC(=O)[C@@H](NC(=O)CNC(=O)[C@H](CCC(=O)O)NC(=O)C(C)(C)NC(=O)[C@@H](N)Cc1ccc(O)cc1)[C@@H](C)O)[C@@H](C)O)[C@@H](C)CC)C(=O)N[C@@H](C)C(=O)N[C@@H](C)C(=O)N[C@@H](CCCCN)C(=O)N[C@@H](CCC(=O)O)C(=O)N[C@@H](Cc1ccccc1)C(=O)N[C@H](C(=O)N[C@@H](CCC(=O)O)C(=O)N[C@@H](Cc1c[nH]c2ccccc12)C(=O)N[C@@H](CC(C)C)C(=O)N[C@@H](CCC(=O)O)C(=O)N[C@@H](CO)C(=O)N[C@@H](C)C(N)=O)[C@@H](C)CC)C(=O)O [Compound 34] (H-Y[Aib]EGTFTSDYSIYLDEK([γGlu-Palmitoyl])AAKEFIEWLESA-NH2),0.031 nM
4,CCCCCCCCCCCCCCCC(=O)N[C@@H](CCC(=O)NCCCC[C@H](NC(=O)[C@H](CCCCN)NC(=O)[C@H](CC(=O)O)NC(=O)[C@H](CC(C)C)NC(=O)[C@H](Cc1ccc(O)cc1)NC(=O)[C@@H](NC(=O)[C@H](CO)NC(=O)[C@H](Cc1ccc(O)cc1)NC(=O)[C@H](CC(=O)O)NC(=O)[C@H](CO)NC(=O)[C@@H](NC(=O)[C@H](Cc1ccccc1)NC(=O)[C@@H](NC(=O)CNC(=O)[C@H](CCC(=O)O)NC(=O)C(C)(C)NC(=O)[C@@H](N)Cc1ccc(O)cc1)[C@@H](C)O)[C@@H](C)O)[C@@H](C)CC)C(=O)N[C@@H](C)C(=O)N[C@@H](CCC(N)=O)C(=O)N[C@@H](CCCNC(=N)N)C(=O)N[C@@H](C)C(=O)N[C@@H](Cc1ccccc1)C(=O)N[C@H](C(=O)N[C@@H](CC(N)=O)C(=O)N[C@@H](Cc1c[nH]c2ccccc12)C(=O)N[C@@H](CC(C)C)C(=O)N[C@@H](CC(C)C)C(=O)N[C@@H](C)C(=O)NC(C)(C)C(=O)N[C@@H](CCCCN)C(=O)N1CCC[C@H]1C(=O)N[C@@H](CO)C(=O)N[C@@H](CO)C(=O)NCC(=O)N[C@@H](C)C(=O)N1CCC[C@H]1C(=O)N1CCC[C@H]1C(=O)N1CCC[C@H]1C(=O)N[C@@H](CO)C(N)=O)C(C)C)C(=O)O [Compound 35],0.022 nM
5,CC[C@H](C)[C@H](NC(=O)[C@H](CO)NC(=O)[C@H](Cc1ccc(O)cc1)NC(=O)[C@H](CC(=O)O)NC(=O)[C@H](CO)NC(=O)[C@@H](NC(=O)[C@H](Cc1ccccc1)NC(=O)[C@@H](NC(=O)CNC(=O)[C@H](CCC(=O)O)NC(=O)C(C)(C)NC(=O)[C@@H](N)Cc1ccc(O)cc1)[C@@H](C)O)[C@@H](C)O)C(=O)N[C@@H](Cc1ccc(O)cc1)C(=O)N[C@@H](CC(C)C)C(=O)N[C@@H](CCC(=O)O)C(=O)N[C@@H](CCCCN)C(=O)N[C@@H](CCCCN)C(=O)N[C@@H](C)C(=O)N[C@@H](C)C(=O)N[C@@H](CCCCN)C(=O)N[C@@H](CC(=O)O)C(=O)N[C@@H](Cc1ccccc1)C(=O)N[C@H](C(=O)N[C@@H](CCC(=O)O)C(=O)N[C@@H](Cc1c[nH]c2ccccc12)C(=O)N[C@@H](CC(C)C)C(=O)N[C@@H](CC(C)C)C(=O)N[C@@H](CO)C(=O)N[C@@H](C)C(N)=O)C(C)C [Compound 37] (H-Y[Aib]EGTFTSDYSIYLEKKAAKDFVEWLLSA-NH2),0.018 nM
6,CC[C@H](C)[C@H](NC(=O)[C@H](CO)NC(=O)[C@H](Cc1ccc(O)cc1)NC(=O)[C@H](CC(=O)O)NC(=O)[C@H](CO)NC(=O)[C@@H](NC(=O)[C@H](Cc1ccccc1)NC(=O)[C@@H](NC(=O)CNC(=O)[C@H](CCC(=O)O)NC(=O)C(C)(C)NC(=O)[C@@H](N)Cc1ccc(O)cc1)[C@@H](C)O)[C@@H](C)O)C(=O)N[C@@H](Cc1ccc(O)cc1)C(=O)N[C@@H](CC(C)C)C(=O)N[C@@H](CCC(=O)O)C(=O)N[C@@H](CCCCN)C(=O)N[C@@H](CCCCN)C(=O)N[C@@H](C)C(=O)N[C@@H](CCC(N)=O)C(=O)N[C@@H](CCCCN)C(=O)N[C@@H](CCC(=O)O)C(=O)N[C@@H](Cc1ccccc1)C(=O)N[C@H](C(=O)N[C@@H](CCC(=O)O)C(=O)N[C@@H](Cc1c[nH]c2ccccc12)C(=O)N[C@@H](CC(C)C)C(=O)N[C@@H](CC(C)C)C(=O)N[C@@H](CO)C(=O)N[C@@H](C)C(N)=O)C(C)C [Compound 39] (H-Y[Aib]EGTFTSDYSIYLEKKAQKEFVEWLLSA-NH2),0.011 nM
7,CC[C@H](C)[C@H](NC(=O)[C@H](CO)NC(=O)[C@H](Cc1ccc(O)cc1)NC(=O)[C@H](CC(=O)O)NC(=O)[C@H](CO)NC(=O)[C@@H](NC(=O)[C@H](Cc1ccccc1)NC(=O)[C@@H](NC(=O)CNC(=O)[C@H](CCC(=O)O)NC(=O)C(C)(C)NC(=O)[C@@H](N)Cc1ccc(O)cc1)[C@@H](C)O)[C@@H](C)O)C(=O)N[C@@H](Cc1ccc(O)cc1)C(=O)N[C@@H](CC(C)C)C(=O)N[C@@H](CC(=O)O)C(=O)N[C@@H](CCC(=O)O)C(=O)N[C@@H](CCCCN)C(=O)N[C@@H](C)C(=O)N[C@@H](C)C(=O)N[C@@H](CCCCN)C(=O)N[C@@H](CC(=O)O)C(=O)N[C@@H](Cc1ccccc1)C(=O)N[C@H](C(=O)N[C@@H](CCC(=O)O)C(=O)N[C@@H](Cc1c[nH]c2ccccc12)C(=O)N[C@@H](CC(C)C)C(=O)N[C@@H](CC(C)C)C(=O)N[C@@H](CO)C(=O)N[C@@H](C)C(N)=O)C(C)C [Compound 40] (H-Y[Aib]EGTFTSDYSIYLDEKAAKDFVEWLLSA-NH2),0.022 nM
8,CC[C@H](C)[C@H](NC(=O)[C@H](CO)NC(=O)[C@H](Cc1ccc(O)cc1)NC(=O)[C@H](CC(=O)O)NC(=O)[C@H](CO)NC(=O)[C@@H](NC(=O)[C@H](Cc1ccccc1)NC(=O)[C@@H](NC(=O)CNC(=O)[C@H](CCC(=O)O)NC(=O)C(C)(C)NC(=O)[C@@H](N)Cc1ccc(O)cc1)[C@@H](C)O)[C@@H](C)O)C(=O)N[C@@H](Cc1ccc(O)cc1)C(=O)N[C@@H](CC(C)C)C(=O)N[C@@H](CCC(=O)O)C(=O)N[C@@H](CO)C(=O)N[C@@H](CCCCN)C(=O)N[C@@H](C)C(=O)N[C@@H](C)C(=O)N[C@@H](Cc1c[nH]cn1)C(=O)N[C@@H](CC(=O)O)C(=O)N[C@@H](Cc1ccccc1)C(=O)N[C@H](C(=O)N[C@@H](CCC(=O)O)C(=O)N[C@@H](Cc1c[nH]c2ccccc12)C(=O)N[C@@H](CC(C)C)C(=O)N[C@@H](CC(C)C)C(=O)N[C@@H](CO)C(=O)N[C@@H](C)C(N)=O)C(C)C [Compound 41] (H-Y[Aib]EGTFTSDYSIYLESKAAHDFVEWLLSA-NH2),0.011 nM
